Legend:
[1] = target: T1, human leukocyte elastase (ELH) (Homo sapiens, UniProt P08246); assay: ex vivo activity on surviving human skin fragments treated with ELH, 10 days culture (Example 5); type: cell-based; details: 0.5 μg ELH per ml; 5 μl of 0.2% compound in ethanol every two days; 10 days at 37° C.; control 7.4%, ELH alone 5.1%
T1 sequence (P08246 30-267): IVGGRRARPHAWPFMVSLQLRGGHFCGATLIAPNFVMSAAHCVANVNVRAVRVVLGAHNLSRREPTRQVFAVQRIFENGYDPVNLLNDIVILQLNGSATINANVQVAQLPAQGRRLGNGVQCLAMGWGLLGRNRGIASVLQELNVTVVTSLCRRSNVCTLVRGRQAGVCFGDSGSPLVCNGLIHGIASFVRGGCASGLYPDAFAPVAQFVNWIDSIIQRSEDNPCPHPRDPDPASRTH
Method: (§1) The ex vivo activity of example 2 compound has been evaluated on surviving human skins treated by a human leukocyte elastase (ELH).
The test is performed the following way:
Fragments of normal human skin from three different donors are deposited in inserts positioned in culture wells. Culture medium added with antibiotics is added in the bottom of the wells. A pass is performed through slow diffusion between the two compartments via a porous membrane (pore size: 12 μm).
The culture medium is renewed every three days.
On the skin fragments, optionally 0.5 μg ELH per ml culture medium are added.
5 μl of the compound to be tested are also added every two days, previously put in solution at 0.2% by weight in ethanol.
The skins are kept surviving for 10 days at 37° C.
(§2) The elastic fibres are coloured in blue using catechin (+) and quantified morphometrically using a computer assisted image analysis. The average derma surface percentage occupied by elastic fibres is evaluated this way.

[2] = target: T1, human leukocyte elastase (ELH); assay: in vitro anti-elastasic activity, Me-OSAAPV-p-NA substrate, spectrophotometry; type: biochemical; details: even in a small amount (0.01% to 0.2%)
Method: The anti-elastasic activity of compounds according to the invention is determined in vitro compared to the human leukocyte elastase (ELH).
The test is performed in the following way:
A Me-OSAAPV-p-NA (méthyl-O-succinate alanine alanine proline valine-p-nitroaniline) substrate, onto which ELH (40 milli-units per ml) and 0.1% of the compound to be tested are applied, is left for incubating at 37° C. for 60 minutes.
Thereafter, the % inhibition of the control elastase activity is determined by spectrophotometry.

[3] = target: T1, human leukocyte elastase (ELH); assay: ex vivo activity on fresh human skin cuts treated with ELH for 2 hours (Example 4); type: cell-based; details: 20° C.
Method: as §1
The test is performed the following way.
Fresh human skin cuts from two different donors are treated for 2 hours, at 20° C., by 20 μl of a buffer solution (pH 7.4) optionally comprising 10 μg/ml ELH and optionally 0.1% of the compound to be tested, optionally previously put in solution in ethanol.
as §2

CC(=O)N(c1cccc(C(F)(F)F)c1)C(C(=O)NCC(=O)O)C(C)C (stereo not shown) [Compound A, {2-[acetyl-(3-trifluoromethyl-phenyl)-amino]-3-méthyl-butyryl-amino}acetic acid]
% Surface occupied by elastic fibres [1]: 7.1% | inhibition of the elastase activity (in words) [2]: strong inhibition | % Surface occupied by elastic fibres ([3]; Skin 1, 10 μg/ml ELH + 0.1% compound, control 12.7%, ELH alone 4.85%): 13.95% | % Surface occupied by elastic fibres ([3]; Skin 2, 10 μg/ml ELH + 0.1% compound, control 15.25%, ELH alone 6.85%): 11.85%

Source: patent US7838020B2, “Cosmetic or dermatological composition comprising an association between a compound of the N-acylaminoamide family and at least one matrix metalloproteinase inhibitor” (L'Oreal, priority 2001, dated 2010)
